The test system of one assay is MV-4-11 cells. Kind of assay: Cell growth inhibition assay (CellTiter-Glo), MV-4-11. Format: cell-based, human. Particulars: MV-4-11, 4 days; for GI50: Homo sapiens, MV4-11, 96 h, half-maximal growth inhibition; for MV-4-11 TGI: total growth inhibition. The gist of the method:
(§1)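 Leukemia cells were exposed for 4 days at 37 °C to 3-fold dilution series from 10 μM (0.1% DMSO), then viable cells were quantified by CellTiter-Glo ATP luminescence. Signal was corrected for background and a day-0 plate, with vehicle set at 100% and medium-only at −100%. IC50 and TGI were obtained by four-parameter fit.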
Background: In ATP-based viability assays light output follows the ATP content of the culture.

The target in another assay is BRD4 (His-Brd4(44-477)) (Homo sapiens (Human), UniProt O60885). Kind of assay: TR-FRET in-vitro binding assay for BRD4. The conditions noted are these: acetyl-histone H4 peptide. (In general: Time-resolved FRET reads energy transfer from a long-lived donor to a nearby acceptor.)
The next assay has as its system K-562 cells. Kind of assay: Cell growth inhibition assay (CellTiter-Glo), K-562. Format: cell-based, human. The conditions noted are these: K-562, 4 days; for GI50: Homo sapiens, K562, 96 h, half-maximal growth inhibition; for K-562 TGI: total growth inhibition. Put shortly:
as §1

Consider `Cc1cc(N2C(=O)c3c(C4CC4)nn(C)c3C2c2ccc(Cl)cc2)cn2c(C(F)F)nnc12` (racemic) [Example 3, 6-(4-chlorophenyl)-3-cyclopropyl-5-(3-(difluoromethyl)-8-methyl-[1,2,4]triazolo[4,3-a]pyridin-6-yl)-1-methyl-5,6-dihydropyrrolo[3,4-c]pyrazol-4(1H)-one], for which, in the assay with MV-4-11 cells, the GI50 (as a rule, the concentration at which growth is held to half of that of the control) came to 9.49 nM and the “MV-4-11 TGI” value was 23.45 nM. The IC50 (commonly the point on the concentration scale where inhibition reaches its midpoint) on BRD4 (His-Brd4(44-477)) is less than 11 nM. For the same molecule, in the assay with K-562 cells, the GI50 was determined as 73.5 nM and the “K-562 TGI” value is more than 10000 nM.

As to `COCCn1nc(C2CC2)c2c1C(c1ccc(Cl)cc1)N(c1cc(C)c3nnc(C)n3c1)C2=O` (racemic) [Example 4, 6-(4-chlorophenyl)-3-cyclopropyl-5-(3,8-dimethyl-[1,2,4]triazolo[4,3-a]pyridin-6-yl)-1-(2-methoxyethyl)-5,6-dihydropyrrolo[3,4-c]pyrazol-4(1H)-one], in the assay with MV-4-11 cells, the concentration for 50% growth inhibition (GI50) turned out to be 9.36 nM and the “MV-4-11 TGI” value worked out at 20.8 nM. Moreover, at BRD4 (His-Brd4(44-477)), the IC50 was less than 11 nM. In addition, in the assay with K-562 cells, the GI50 turned out to be 56.8 nM and the “K-562 TGI” value was more than 10000 nM.

Consider `COc1cc(N2C(=O)c3c(C4CC4)nn(C)c3C2c2ccc(Cl)cc2)cn2c(C)nnc12` (racemic) [Example 5, 6-(4-chlorophenyl)-3-cyclopropyl-5-(8-methoxy-3-methyl-[1,2,4]triazolo[4,3-a]pyridin-6-yl)-1-methyl-5,6-dihydropyrrolo[3,4-c]pyrazol-4(1H)-one], for which, in the assay with MV-4-11 cells, it took 64.9 nM to inhibit growth by half (GI50) and the “MV-4-11 TGI” value worked out at 104 nM. In addition, the concentration for half-maximal inhibition (IC50) at BRD4 (His-Brd4(44-477)) stood at 28 nM. In the assay on K-562 cells, halving of growth (GI50) required 373 nM and the “K-562 TGI” value was more than 10000 nM.

With `Cc1cc(N2C(=O)c3c(C4CC4)nn(C)c3C2c2ccc(Cl)cc2)cn2c(CF)nnc12` (racemic) [Example 16, 6-(4-chlorophenyl)-3-cyclopropyl-5-(3-(fluoromethyl)-8-methyl-[1,2,4]triazolo[4,3-a]-pyridin-6-yl)-1-methyl-5,6-dihydropyrrolo[3,4-c]pyrazol-4(1H)-one], in the assay with MV-4-11 cells, the GI50 is 6.07 nM and the “MV-4-11 TGI” value turned out to be 11.3 nM. In addition, on BRD4 (His-Brd4(44-477)), the IC50 was 15 nM. In addition, in the assay on K-562 cells, the GI50 came to 122 nM and the “K-562 TGI” value was more than 10000 nM.

Turning to `Cc1cc(N2C(=O)c3c(C4CC4)nn(C)c3C2c2ccc(Cl)cc2)cn2c(C)nnc12` (stereo not shown) [Example 1, 6-(4-chlorophenyl)-3-cyclopropyl-5-(3,8-dimethyl-[1,2,4]triazolo[4,3-a]pyridin-6-yl)-1-methyl-5,6-dihydropyrrolo[3,4-c]pyrazol-4(1H)-one], in the assay with MV-4-11 cells, the GI50 amounted to 5.42 nM and the “MV-4-11 TGI” value came out at 10.7 nM. The IC50 at BRD4 (His-Brd4(44-477)) was found to be 24 nM. Besides, in the assay with K-562 cells, the GI50 turned out to be 51.9 nM and the “K-562 TGI” value is more than 10000 nM.

Turning to `Cc1cc(N2C(=O)c3c(C4CC4)nn(C)c3[C@H]2c2ccc(Cl)cc2)cn2c(C)nnc12` [Example 2, (R)-6-(4-chlorophenyl)-3-cyclopropyl-5-(3,8-dimethyl-[1,2,4]triazolo[4,3-a]pyridin-6-yl)-1-methyl-5,6-dihydropyrrolo[3,4-c]pyrazol-4(1H)-one], in the assay with MV-4-11 cells, halving of growth (GI50) required 4.31 nM and the “MV-4-11 TGI” value is 11.21 nM. The IC50 at BRD4 (His-Brd4(44-477)) is less than 11 nM. Further, in the assay on K-562 cells, growth was halved (GI50) at 29.2 nM and the “K-562 TGI” value is more than 10000 nM.

On to `COc1cc(N2C(=O)c3c(C4CC4)nn(C)c3C2c2ccc(Cl)cc2)cc2c1nnn2C` (stereo not shown) [Example 6], for which, in the assay with MV-4-11 cells, the GI50 was 44.5 nM and the “MV-4-11 TGI” value turned out to be 90.25 nM. Further, the IC50 at BRD4 (His-Brd4(44-477)) came to 22 nM. Besides, in the assay on K-562 cells, halving of growth (GI50) required 204 nM and the “K-562 TGI” value was more than 10000 nM.

For the molecule `Cc1cc(N2C(=O)c3c(C4CC4)nn(C)c3[C@H]2c2ccc(Cl)cc2)cn2c(C(F)F)nnc12` [Example 7, (R)-6-(4-chlorophenyl)-3-cyclopropyl-5-(3-(difluoromethyl)-8-methyl-[1,2,4]triazolo-[4,3-a]pyridin-6-yl)-1-methyl-5,6-dihydropyrrolo[3,4-c]pyrazol-4(1H)-one], in the assay with MV-4-11 cells, the GI50 was found to be 2.45 nM and the “MV-4-11 TGI” value was found to be 6.275 nM. The IC50 on BRD4 (His-Brd4(44-477)) is less than 11 nM. For the same molecule, in the assay with K-562 cells, the GI50 was 46.3 nM and the “K-562 TGI” value was more than 10000 nM.

With `COCCn1nc(C2CC2)c2c1C(c1ccc(Cl)cc1)N(c1cc(C)c3nnc(CF)n3c1)C2=O` (stereo not shown) [Example 18, 6-(4-chlorophenyl)-3-cyclopropyl-5-(3-(fluoromethyl)-8-methyl-[1,2,4]triazolo[4,3-a]-pyridin-6-yl)-1-(2-methoxyethyl)-5,6-dihydropyrrolo[3,4-c]pyrazol-4(1H)-one], in the assay on MV-4-11 cells, halving of growth (GI50) required 6.73 nM and the “MV-4-11 TGI” value was found to be 13.25 nM. The same molecule showed an IC50 on BRD4 (His-Brd4(44-477)) of 25 nM. Also, in the assay with K-562 cells, the GI50 turned out to be 139 nM and the “K-562 TGI” value is more than 10000 nM.

Consider `Cc1nnc2c(NC(=O)OC(C)(C)C)cc(N3C(=O)c4c(C5CC5)nn(C)c4C3c3ccc(Cl)cc3)cn12` (stereo not shown) [Example 27, tert-butyl (6-(6-(4-chlorophenyl)-3-cyclopropyl-1-methyl-4-oxopyrrolo[3,4-c]pyrazol-5(1H,4H,6H)-yl)-3-methyl-[1,2,4]triazolo[4,3-a]pyridin-8-yl)carbamate], for which, in the assay with MV-4-11 cells, the GI50 is 11.1 nM and the “MV-4-11 TGI” value was 22.6 nM. At BRD4 (His-Brd4(44-477)), this molecule returned an IC50 of 36 nM. Also, in the assay with K-562 cells, the GI50 turned out to be 164 nM and the “K-562 TGI” value was more than 10000 nM.

In the case of `CCOC(=O)Nc1cc(N2C(=O)c3c(C4CC4)nn(C)c3C2c2ccc(Cl)cc2)cn2c(C)nnc12` (stereo not shown) [Example 29, ethyl (6-(6-(4-chlorophenyl)-3-cyclopropyl-1-methyl-4-oxopyrrolo[3,4-c]pyrazol-5-(1H,4H,6H)-yl)-3-methyl-[1,2,4]triazolo[4,3-a]pyridin-8-yl)carbamate], in the assay with MV-4-11 cells, the GI50 turned out to be 1.13 nM and the “MV-4-11 TGI” value was 1.97 nM. Moreover, the IC50 at BRD4 (His-Brd4(44-477)) is 23 nM. In the assay on K-562 cells, the GI50 turned out to be 23.6 nM and the “K-562 TGI” value was more than 10000 nM.

These data come from US9624247B2, “Pyrazolo-pyrrolidin-4-one derivatives as bet inhibitors and their use in the treatment of disease” (NOVARTIS AG, priority 2013, dated 2017).
